Source: article PMC3781598 (Pharmaceutical research, 2013)
Where “and” joins values, the source holds several entries; their conditions need not be identical. Equal entries are not always repeated. Entries after “also recorded” stand apart in the source; their conditions may differ. Where two headings read alike, the source gives them in different places.

Columns and labels:
human CYP2A6 [1] = biological target: T1, human CYP2A6 (Homo sapiens, UniProt P11509); assay: Spectral ligand binding assay; conditions: for Kd / Kd 2A6: ≥ = minimal Kd value; for Spectral shift type 2A6: UV/Vis difference spectra
T1 sequence (P11509 with tags, fused parts or gaps limits assumed): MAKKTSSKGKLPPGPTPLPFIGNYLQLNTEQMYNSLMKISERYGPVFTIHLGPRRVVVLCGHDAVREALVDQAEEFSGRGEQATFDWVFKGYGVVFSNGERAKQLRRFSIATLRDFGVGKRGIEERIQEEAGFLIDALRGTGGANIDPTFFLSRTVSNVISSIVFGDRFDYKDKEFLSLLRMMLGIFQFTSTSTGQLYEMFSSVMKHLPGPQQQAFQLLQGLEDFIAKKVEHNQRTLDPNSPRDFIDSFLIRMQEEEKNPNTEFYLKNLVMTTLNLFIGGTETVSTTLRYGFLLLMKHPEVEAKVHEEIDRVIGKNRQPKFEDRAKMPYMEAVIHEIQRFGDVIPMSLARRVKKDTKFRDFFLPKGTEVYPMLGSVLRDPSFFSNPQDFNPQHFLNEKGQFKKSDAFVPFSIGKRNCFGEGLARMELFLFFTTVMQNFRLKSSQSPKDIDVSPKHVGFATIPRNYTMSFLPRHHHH

human CYP2A6 [2] = biological target: T1, human CYP2A6; assay: Coumarin metabolism assay; conditions: for α (mixed inhibition) 2A6: mixed model inhibition
CYP2A6 / CYP2A13 [3] = assay: Spectral ligand binding assay; design: species or system human; conditions: human
human CYP2A13 [4] = biological target: T2, human CYP2A13 (Homo sapiens, UniProt Q16696); assay: Spectral ligand binding assay; conditions: for Kd: Kd 2A13, spectral titration, ≥ = minimal Kd value; for Spectral shift type 2A13: UV/Vis difference spectra
T2 sequence (Q16696 25-494): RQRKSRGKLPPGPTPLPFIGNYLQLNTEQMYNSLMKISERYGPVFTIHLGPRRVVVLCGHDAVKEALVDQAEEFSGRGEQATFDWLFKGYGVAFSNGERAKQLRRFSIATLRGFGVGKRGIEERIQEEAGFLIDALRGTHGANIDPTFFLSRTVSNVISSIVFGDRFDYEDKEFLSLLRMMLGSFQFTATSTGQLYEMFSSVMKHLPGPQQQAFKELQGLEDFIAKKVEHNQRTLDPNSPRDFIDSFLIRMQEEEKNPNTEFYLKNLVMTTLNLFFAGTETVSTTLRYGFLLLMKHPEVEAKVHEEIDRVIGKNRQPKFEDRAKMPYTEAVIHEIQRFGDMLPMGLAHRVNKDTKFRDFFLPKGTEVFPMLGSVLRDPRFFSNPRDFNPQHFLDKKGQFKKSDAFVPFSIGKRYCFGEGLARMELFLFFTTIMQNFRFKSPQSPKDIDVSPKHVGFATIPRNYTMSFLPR

human CYP2A13 [5] = biological target: T3, human CYP2A13 (Homo sapiens, UniProt Q16696); assay: Coumarin metabolism assay; conditions: for α (mixed inhibition) 2A13: mixed model inhibition
T3 sequence (Q16696 with tags, fused parts or gaps limits assumed): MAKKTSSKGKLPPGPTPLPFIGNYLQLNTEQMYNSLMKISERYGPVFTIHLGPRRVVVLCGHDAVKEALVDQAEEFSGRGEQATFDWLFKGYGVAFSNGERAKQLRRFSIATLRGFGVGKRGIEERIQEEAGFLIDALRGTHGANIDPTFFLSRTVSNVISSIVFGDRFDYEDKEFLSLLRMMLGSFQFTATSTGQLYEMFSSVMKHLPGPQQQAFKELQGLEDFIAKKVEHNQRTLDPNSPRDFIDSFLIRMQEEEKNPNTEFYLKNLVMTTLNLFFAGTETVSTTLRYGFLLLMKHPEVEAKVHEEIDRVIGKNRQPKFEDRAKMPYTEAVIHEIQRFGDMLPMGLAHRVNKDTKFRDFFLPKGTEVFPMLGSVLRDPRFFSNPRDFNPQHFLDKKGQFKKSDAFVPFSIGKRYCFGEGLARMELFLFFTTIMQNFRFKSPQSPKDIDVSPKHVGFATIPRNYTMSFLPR

CYP2A6 / CYP2A13 [6] = assay: Coumarin metabolism assay; conditions: human
human CYP2A13 [7] = assay: Spectral ligand binding assay; conditions: ratio of the CYP2A6 value to the CYP2A13 value
human CYP2A13 [8] = assay: Coumarin metabolism assay; conditions: ratio of the CYP2A6 value to the CYP2A13 value
[9] = Selectivity Kd (2A6)/ Kd (2A13), ratio of the CYP2A6 value to the CYP2A13 value
[10] = pH 7.4, probe coumarin (7-hydroxylation), Selectivity Ki (2A6)/ Ki (2A13), ratio of the CYP2A6 value to the CYP2A13 value
[11] = read-out: Kd 2A6, spectral titration
[12] = read-out: Ki 2A6, coumarin substrate
[13] = read-out: Ki 2A13, coumarin substrate

Molecule	Kd (human CYP2A6 [1]; Kd 2A6, spectral titration) [µM]	Spectral shift type 2A6 (human CYP2A6 [1])	Ki (human CYP2A6 [2]) [µM]	selectivity ratio (CYP2A6 / CYP2A13 [3]; [9])	Kd (human CYP2A13 [4])	Spectral shift type 2A13 (human CYP2A13 [4])	Ki (human CYP2A13 [5]) [µM]	selectivity ratio at 10 min (CYP2A6 / CYP2A13 [6]; [10])	Selectivity Kd (2A6)/ Kd (2A13) (human CYP2A13 [7])	Kd (human CYP2A6 [1]; [11]) [µM]	Ki (human CYP2A6 [2]; [12]) [µM]	Ki (human CYP2A13 [5]; [13]) [µM]	Mode of inhibition 2A6 (human CYP2A6 [2]; coumarin substrate)	α (mixed inhibition) 2A6 (human CYP2A6 [2]; coumarin substrate)	Kd 2A6 (human CYP2A6 [1]; spectral titration)	Selectivity Ki (2A6)/ Ki (2A13) (human CYP2A13 [8])	Mode of inhibition 2A13 (human CYP2A13 [5]; coumarin substrate)	α (mixed inhibition) 2A13 (human CYP2A13 [5]; coumarin substrate)	selectivity ratio at 10 min (CYP2A6 / CYP2A13 [6]; pH 7.4)	selectivity ratio (CYP2A6 / CYP2A13 [3])
CC(c1ccccc1Cl)N1CCOCC1 (stereo not shown) [Compound 23, 4-(1-(2-chlorophenyl)ethyl)morpholine]	≥ 538	I	98.5	≥ 70.8	7.6 ± 2.8 µM	I	15.9	6.2	–	–	–	–	–	–	–	–	–	–	–	–
Cc1cccc(Cl)c1CN1CCOCC1 [Compound 9, 4-(2-chloro-6-methylbenzyl)morpholine]	515	I	296	> 400	1.1 µM	I	19.7 ± 1.2	15	468	–	–	–	–	–	–	–	–	–	–	–
Clc1cccc(CN2CCOCC2)c1 [Compound 10, 4-(3-chlorobenzyl)morpholine]	≥ 400	I [drawing 12] II	352	≥ 5.8	69.1 ± 30.2 µM	I	260	1.4	–	–	–	–	–	–	–	–	–	–	–	–
Clc1ccccc1CCN1CCOCC1 [Compound 24, 4-(2-chlorophenethyl)morpholine]	–	–	–	–	–	–	–	–	–	≥ 604	≥ 1000	604	–	–	–	–	–	–	–	–
Clc1cccc(Cl)c1CN1CCOCC1 [Compound 8, 4-(2,6-dichlorobenzyl)morpholine]	≥ 522	I	237	> 400	1.3 µM	I	18.1	13.7	–	–	–	–	–	–	–	–	–	–	–	–
Benzylmorpholine [Compound 1]	–	I [drawing 2] II	–	–	–	–	–	–	–	≥ 300	675	477	mixed inhibition	3.4	–	–	–	–	–	–
c1csc(CN2CCOCC2)c1 [Compound 19, 4-(thiophen-2-ylmethyl)morpholine]	≥ 464	I	270	≥ 15.1	30.8 µM	I	131	2.1	–	–	–	–	–	–	–	–	–	–	–	–
CN1CCN(Cc2ccccc2Cl)CC1 [Compound 21, 1-(2-chlorobenzyl)-4-methylpiperazine]	–	–	≥ 1000	–	306 µM	I	≥ 1000	–	–	–	–	–	–	–	weak or no spectral shifts; also recorded: Weak Spectral Shift	–	–	–	–	–
Clc1ccc(CN2CCOCC2)c(Cl)c1 [Compound 13, 4-(2,4-dichlorobenzyl)morpholine]	≥ 198	I	995	≥ 5.8	34.2 µM	I	113 ± 14	~9	–	–	–	–	–	–	–	8.9	–	–	–	–
c1ccc2c(CN3CCOCC3)cccc2c1 [Compound 15, 4-(naphthalen-1-ylmethyl)morpholine]	–	–	500	–	41.8 µM and 121 µM	I	219 ± 18.7	2.3	–	–	–	–	mixed inhibition	3.1	Weak Spectral Shift	–	–	–	–	–
CC1CN(Cc2cccc(Cl)c2Cl)CC(C)O1 (stereo not shown) [Compound 14, 4-(2,3-dichlorobenzyl)-2,6-dimethylmorpholine]	≥ 462	I	≥ 1000	≥ 12.5	37 µM	I	646	≥ 2.6	–	–	–	–	–	–	–	–	mixed inhibition	19.6	–	–
CN1CCN(Cc2c(Cl)cccc2Cl)CC1 [Compound 22, 1-(2,6-dichlorobenzyl)-4-methylpiperazine]	–	–	≥ 1000	–	≥ 362 µM	I	≥ 1000	–	–	–	–	–	–	–	weak or no spectral shifts; also recorded: No Spectral Shift	–	–	–	–	–
Clc1ccc(CN2CCOCC2)cc1 [Compound 11, 4-(4-chlorobenzyl)morpholine]	≥ 245	I	448	≥ 1.5	168 µM and 167 µM	I	458	1	–	–	–	–	–	–	–	–	–	–	–	–
Brc1ccccc1CN1CCOCC1 [Compound 4, 4-(2-bromobenzyl)morpholine]	–	–	≥ 1000	–	6.3 µM	I	17.6 ± 3.1	–	–	–	–	–	–	–	No ^** Spectral Shift	–	–	–	≥ 56.8	–
Clc1ccccc1Cn1ccnc1 [Compound 16, 1-(2-chlorobenzyl)-1H-imidazole]	0.1	–	2.9	≥ 1	< 0.1 µM	–	2.8	1	–	–	–	–	purely competitive inhibitors	–	–	–	mixed inhibition; also recorded: mixed inhibitors	3.9	–	–
Clc1cccc(CN2CCOCC2)c1Cl [Compound 12, 4-(2,3-dichlorobenzyl)morpholine]	≥ 305	I	836	≥ 9.9	30.8 ± 8.1 µM	I	88.9	~9	–	–	–	–	–	–	–	9.4	–	–	–	–
CCc1ccccc1CN1CCOCC1 [Compound 6, 4-(2-ethylbenzyl)morpholine]	≥ 575	I	818	–	4.5 µM	I	16.9	–	–	–	–	–	mixed inhibition	13.3	–	–	–	–	48.4	≥ 128
Clc1ccsc1CN1CCOCC1 [Compound 20, 4-((3-chlorothiophen-2-yl)methyl)morpholine]	≥ 239	I	433	≥ 22.3	10.7 µM	I	54.7	7.9	–	–	–	–	–	–	–	–	–	–	–	–
Clc1cccc(Cl)c1Cn1ccnc1 [Compound 17, 1-(2,6-dichlorobenzyl)-1H-imidazole]	0.9	–	0.9	≥ 9	< 0.1 µM	–	2.1	0.4	–	–	–	–	purely competitive inhibitors	–	–	–	mixed inhibition; also recorded: mixed inhibitors	2.0	–	–
Cc1ccccc1CN1CCOCC1 [Compound 5, 4-(2-methylbenzyl)morpholine]	–	–	≥ 1000	–	18.5 µM	I	66.9	≥ 14.9	–	–	–	–	–	–	No ^** Spectral Shift	–	–	–	–	–
Fc1ccccc1CN1CCOCC1 [Compound 2, 4-(2-fluorobenzyl)morpholine]	–	–	≥ 1000	–	–	I	379	≥ 2.6	–	–	–	–	–	–	no spectral shift; also recorded: No ^** Spectral Shift	–	–	–	–	–
